Kd data for 16 compounds are collected here from ChEMBL document CHEMBL4308907, “Pyrrolidinone-bearing methylated and halogenated benzenesulfonamides as inhibitors of carbonic anhydrases” (Bioorg Med Chem, 2019).

Some results are limits rather than exact numbers.

As usually defined, the Kd is the constant that tells how readily two partners part at equilibrium.

The target in one test is Carbonic anhydrase 1 (Homo sapiens, UniProt P00915). Description: Binding affinity to recombinant human CA1 by DSF-based fluorescence thermal shift assay.
Carbonic anhydrase 1, sequence (P00915 whole entry, the tested form may be a part): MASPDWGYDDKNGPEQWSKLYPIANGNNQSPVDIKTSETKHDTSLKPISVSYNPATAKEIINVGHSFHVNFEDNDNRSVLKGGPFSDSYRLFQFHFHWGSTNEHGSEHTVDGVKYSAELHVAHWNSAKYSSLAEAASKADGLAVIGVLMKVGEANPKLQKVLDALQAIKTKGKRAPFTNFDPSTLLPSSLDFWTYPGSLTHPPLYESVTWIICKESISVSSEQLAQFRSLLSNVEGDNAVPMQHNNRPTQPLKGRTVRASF
The target in a further test is Carbonic anhydrase 3 (Homo sapiens, UniProt P07451). Description: Binding affinity to recombinant N-terminal His6x-tagged human CA3 (4 to 260 residues) expressed in Escherichia coli BL21(DE3) by DSF-based fluorescence thermal shift assay.
Carbonic anhydrase 3, sequence (P07451 whole entry, the tested form may be a part): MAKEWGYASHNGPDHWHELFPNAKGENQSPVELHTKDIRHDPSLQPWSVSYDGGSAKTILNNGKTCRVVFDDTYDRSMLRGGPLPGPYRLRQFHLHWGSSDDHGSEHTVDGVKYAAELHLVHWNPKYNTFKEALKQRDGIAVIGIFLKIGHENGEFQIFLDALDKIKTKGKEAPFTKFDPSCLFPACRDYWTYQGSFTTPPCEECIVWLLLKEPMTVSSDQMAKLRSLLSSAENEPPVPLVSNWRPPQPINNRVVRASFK
Another test deals with Carbonic anhydrase 7 (Homo sapiens, UniProt P43166). Nature of the test: Binding affinity to recombinant human CA7 by DSF-based fluorescence thermal shift assay.
Carbonic anhydrase 7, sequence (P43166 whole entry): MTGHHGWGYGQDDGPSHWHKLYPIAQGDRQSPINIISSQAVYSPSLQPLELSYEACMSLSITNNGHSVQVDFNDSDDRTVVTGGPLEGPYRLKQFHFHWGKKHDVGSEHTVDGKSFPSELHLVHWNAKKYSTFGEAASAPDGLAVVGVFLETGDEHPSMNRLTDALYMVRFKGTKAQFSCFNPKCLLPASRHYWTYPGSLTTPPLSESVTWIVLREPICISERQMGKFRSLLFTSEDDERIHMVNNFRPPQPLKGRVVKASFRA
A further test has as its target Carbonic anhydrase 9 (Homo sapiens, UniProt Q16790). Description: Binding affinity to recombinant human CA9 by DSF-based fluorescence thermal shift assay.
For another test, the target named is Carbonic anhydrase 6 (Homo sapiens, UniProt P23280). Description: Binding affinity to recombinant human CA6 by DSF-based fluorescence thermal shift assay.
Carbonic anhydrase 6, sequence (P23280 whole entry): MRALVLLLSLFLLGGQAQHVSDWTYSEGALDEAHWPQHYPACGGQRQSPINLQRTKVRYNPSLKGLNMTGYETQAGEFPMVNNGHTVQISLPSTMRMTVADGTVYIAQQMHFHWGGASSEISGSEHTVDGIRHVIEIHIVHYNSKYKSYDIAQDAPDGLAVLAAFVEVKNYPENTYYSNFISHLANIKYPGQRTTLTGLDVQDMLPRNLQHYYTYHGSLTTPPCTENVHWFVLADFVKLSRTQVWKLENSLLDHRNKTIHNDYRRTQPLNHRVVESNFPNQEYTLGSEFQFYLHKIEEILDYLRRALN
The target in a further test is Carbonic anhydrase 2 (Homo sapiens, UniProt P00918). Description: Binding affinity to recombinant human CA2 by DSF-based fluorescence thermal shift assay.
Test [1] has as its target Carbonic anhydrase 5B, mitochondrial (Homo sapiens, UniProt Q9Y2D0). Nature of the test: Binding affinity to recombinant full length N-terminal His6x-tagged human CA5B expressed in Escherichia coli Rosetta 2 (DE3) by DSF-based fluorescence thermal shift assay.
Another test deals with Carbonic anhydrase 13 (Homo sapiens, UniProt Q8N1Q1). Description: Binding affinity to recombinant human CA13 by DSF-based fluorescence thermal shift assay.
Carbonic anhydrase 13, sequence (Q8N1Q1 whole entry): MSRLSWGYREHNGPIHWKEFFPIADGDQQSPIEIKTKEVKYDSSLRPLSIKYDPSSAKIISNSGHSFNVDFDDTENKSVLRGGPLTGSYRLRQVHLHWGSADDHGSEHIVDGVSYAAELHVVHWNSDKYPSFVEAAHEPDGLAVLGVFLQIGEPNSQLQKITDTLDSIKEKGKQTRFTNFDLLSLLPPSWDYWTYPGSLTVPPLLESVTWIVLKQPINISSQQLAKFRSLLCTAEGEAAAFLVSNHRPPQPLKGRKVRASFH
The target in the next test is Carbonic anhydrase 12 (Homo sapiens, UniProt O43570). Nature of the test: Binding affinity to recombinant human CA12 by DSF-based fluorescence thermal shift assay.
Carbonic anhydrase 12, sequence (O43570 whole entry): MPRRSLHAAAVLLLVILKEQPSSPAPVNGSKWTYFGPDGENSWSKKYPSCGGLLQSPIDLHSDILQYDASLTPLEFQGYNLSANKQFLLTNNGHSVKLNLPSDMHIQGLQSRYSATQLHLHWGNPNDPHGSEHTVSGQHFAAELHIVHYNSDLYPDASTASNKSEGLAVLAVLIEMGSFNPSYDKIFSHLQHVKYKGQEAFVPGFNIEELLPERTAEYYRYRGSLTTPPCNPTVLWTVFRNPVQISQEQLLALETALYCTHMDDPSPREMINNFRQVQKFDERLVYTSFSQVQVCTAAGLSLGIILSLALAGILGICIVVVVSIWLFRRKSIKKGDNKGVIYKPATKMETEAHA
The target of the next test is Carbonic anhydrase 4 (Homo sapiens, UniProt P22748). Description: Binding affinity to recombinant human CA4 by DSF-based fluorescence thermal shift assay.
Carbonic anhydrase 4, sequence (P22748 whole entry, the tested form may be a part): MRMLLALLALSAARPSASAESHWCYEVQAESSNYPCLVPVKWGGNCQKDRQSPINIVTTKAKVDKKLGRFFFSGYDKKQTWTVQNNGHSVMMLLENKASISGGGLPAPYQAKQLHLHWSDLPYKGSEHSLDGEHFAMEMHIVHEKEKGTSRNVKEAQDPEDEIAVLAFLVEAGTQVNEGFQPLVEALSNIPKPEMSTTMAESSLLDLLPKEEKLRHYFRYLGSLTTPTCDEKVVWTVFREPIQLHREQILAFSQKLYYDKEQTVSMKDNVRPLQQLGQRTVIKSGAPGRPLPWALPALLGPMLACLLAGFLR
Another test deals with Carbonic anhydrase 14 (Homo sapiens, UniProt Q9ULX7). Description: Binding affinity to recombinant N-terminal His6x-tagged human CA14 (20 to 280 residues) catalytic domain expressed in Escherichia coli Rosetta 2 (DE3) by DSF-based fluorescence thermal shift assay.
Carbonic anhydrase 14, sequence (Q9ULX7 whole entry, the tested form may be a part): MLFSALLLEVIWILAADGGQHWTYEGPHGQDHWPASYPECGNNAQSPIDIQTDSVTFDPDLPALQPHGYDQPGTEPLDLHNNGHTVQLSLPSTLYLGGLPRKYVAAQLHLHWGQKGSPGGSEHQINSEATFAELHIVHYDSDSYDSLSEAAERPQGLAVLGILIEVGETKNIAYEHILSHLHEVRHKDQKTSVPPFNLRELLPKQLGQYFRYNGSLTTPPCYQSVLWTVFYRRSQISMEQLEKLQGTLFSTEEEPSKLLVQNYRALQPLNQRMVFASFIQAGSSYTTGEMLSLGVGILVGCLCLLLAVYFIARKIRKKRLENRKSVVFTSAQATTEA

Carbonic anhydrase 5B, mitochondrial, sequence (Q9Y2D0 whole entry): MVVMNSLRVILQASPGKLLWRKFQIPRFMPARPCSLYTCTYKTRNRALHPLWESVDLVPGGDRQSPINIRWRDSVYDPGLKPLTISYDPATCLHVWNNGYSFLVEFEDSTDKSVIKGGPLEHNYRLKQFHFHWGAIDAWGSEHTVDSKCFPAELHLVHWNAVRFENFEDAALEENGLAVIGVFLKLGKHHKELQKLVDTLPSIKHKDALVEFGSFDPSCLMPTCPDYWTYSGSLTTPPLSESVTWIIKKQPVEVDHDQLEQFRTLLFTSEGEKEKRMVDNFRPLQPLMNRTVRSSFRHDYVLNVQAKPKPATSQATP

Take `Cc1cc(C)cc(N2CC(C(=O)O)CC2=O)c1` (stereo not given): the Kd on Carbonic anhydrase 1, on Carbonic anhydrase 3, at Carbonic anhydrase 7, at Carbonic anhydrase 9, at Carbonic anhydrase 6 and on Carbonic anhydrase 2 was at least 200000 nM throughout. The Kd (in test [1]; at Carbonic anhydrase 13; on Carbonic anhydrase 12; at Carbonic anhydrase 4) was at least 200000 nM in each case.

For the compound `Cc1cc(N2CC(C(=O)O)CC2=O)cc(C)c1S(=O)(=O)Cl` (stereo not given), the equilibrium dissociation constant (Kd) on Carbonic anhydrase 1, on Carbonic anhydrase 3, at Carbonic anhydrase 7, at Carbonic anhydrase 9, at Carbonic anhydrase 6 and on Carbonic anhydrase 2 was at least 200000 nM each time. The equilibrium dissociation constant (Kd) (in test [1]; at Carbonic anhydrase 13; on Carbonic anhydrase 12; at Carbonic anhydrase 4) was at least 200000 nM throughout.

As to `Cc1cc(N2CC(C(=O)N/N=C/c3ccc(Br)cc3)CC2=O)cc(C)c1S(N)(=O)=O` (stereo not given), the Kd is 2500 nM on Carbonic anhydrase 1; at least 200000 nM at Carbonic anhydrase 3; 37000 nM on Carbonic anhydrase 7; 2500 nM at Carbonic anhydrase 9; 18000 nM at Carbonic anhydrase 6; 2900 nM at Carbonic anhydrase 2. The equilibrium dissociation constant (Kd) stood at 630 nM in test [1], 33000 nM at Carbonic anhydrase 13, 33000 nM at Carbonic anhydrase 12 and 20000 nM at Carbonic anhydrase 4.

In the case of `NS(=O)(=O)c1ccc(N2CC(C(=O)O)CC2=O)cc1` (stereo not given), the Kd at Carbonic anhydrase 14 is 720 nM; at Carbonic anhydrase 1 it was 4200 nM; at Carbonic anhydrase 3, at least 200000 nM; at Carbonic anhydrase 7, 460 nM; on Carbonic anhydrase 9, 330 nM; at Carbonic anhydrase 6, 6700 nM. Besides, the Kd on Carbonic anhydrase 2 came to 500 nM; in test [1] it was 4700 nM; on Carbonic anhydrase 12, 2000 nM; on Carbonic anhydrase 4 it was 2500 nM.

Take `Cc1cc(C)n(NC(=O)C2CC(=O)N(c3cc(C)c(S(N)(=O)=O)c(C)c3)C2)n1` (stereo not given): the Kd is 2900 nM at Carbonic anhydrase 1; at least 200000 nM on Carbonic anhydrase 3; 33000 nM at Carbonic anhydrase 7; 2000 nM on Carbonic anhydrase 9; 29000 nM on Carbonic anhydrase 6; 2000 nM at Carbonic anhydrase 2. Also, the Kd was 500 nM in test [1], 8300 nM on Carbonic anhydrase 13, 67000 nM on Carbonic anhydrase 12 and 2000 nM on Carbonic anhydrase 4.

In the case of `Cc1cc(N2CC(C(=O)NN)CC2=O)c(Cl)c(C)c1S(N)(=O)=O` (stereo not given), the Kd is 40 nM at Carbonic anhydrase 14; 2500 nM on Carbonic anhydrase 1; at least 200000 nM at Carbonic anhydrase 3; 100 nM on Carbonic anhydrase 7; 330 nM on Carbonic anhydrase 9; 4800 nM on Carbonic anhydrase 6. Besides, the equilibrium dissociation constant (Kd) on Carbonic anhydrase 2 was 140 nM; in test [1], 140 nM; at Carbonic anhydrase 13, 200 nM; on Carbonic anhydrase 4 it was 500 nM.

Regarding `Cc1cc(N2CC(C(=O)N/N=C/c3ccc(Br)cc3)CC2=O)c(Cl)c(C)c1S(N)(=O)=O` (stereo not given), the Kd is 560 nM at Carbonic anhydrase 1; at least 200000 nM at Carbonic anhydrase 3; 63 nM at Carbonic anhydrase 7; 200 nM on Carbonic anhydrase 9; 920 nM at Carbonic anhydrase 6; 50 nM on Carbonic anhydrase 2. Moreover, the Kd was determined as 7.7 nM in test [1], 67 nM at Carbonic anhydrase 13, 1400 nM on Carbonic anhydrase 12 and 340 nM on Carbonic anhydrase 4.

Regarding `Cc1cc(N2CC(C(=O)N/N=C/c3ccc([N+](=O)[O-])cc3)CC2=O)c(Cl)c(C)c1S(N)(=O)=O` (stereo not given), the Kd at Carbonic anhydrase 1 is 330 nM; on Carbonic anhydrase 3 it was at least 200000 nM; on Carbonic anhydrase 7, 43 nM; at Carbonic anhydrase 9, 100 nM; at Carbonic anhydrase 6 it was 810 nM; on Carbonic anhydrase 2, 50 nM. The equilibrium dissociation constant (Kd) in test [1] is 18 nM; at Carbonic anhydrase 13, 56 nM; on Carbonic anhydrase 12, 1400 nM; on Carbonic anhydrase 4, 480 nM.

On to `COc1ccc(/C=N/NC(=O)C2CC(=O)N(c3cc(C)c(S(N)(=O)=O)c(C)c3)C2)cc1` (stereo not given), for which the Kd on Carbonic anhydrase 1 was 2000 nM; at Carbonic anhydrase 3 it was at least 200000 nM; on Carbonic anhydrase 7, 18000 nM; at Carbonic anhydrase 9, 2000 nM; on Carbonic anhydrase 6 it was 14000 nM; on Carbonic anhydrase 2 it was 2000 nM. Further, the dissociation constant (Kd) in test [1] is 670 nM; at Carbonic anhydrase 13, 21000 nM; at Carbonic anhydrase 12 it was 18000 nM; at Carbonic anhydrase 4 it was 2200 nM.

`Cc1cc(N2CC(c3n[nH]c(=S)n3-c3ccccc3)CC2=O)cc(C)c1S(N)(=O)=O` (stereo not given): the dissociation constant Kd was 2500 nM at Carbonic anhydrase 1; at least 200000 nM at Carbonic anhydrase 3; 5400 nM at Carbonic anhydrase 7; 1400 nM at Carbonic anhydrase 9; 41000 nM at Carbonic anhydrase 6; 2000 nM at Carbonic anhydrase 2. Moreover, the Kd in [1] is 770 nM; at Carbonic anhydrase 13 it was 2000 nM; at Carbonic anhydrase 12, 10000 nM; at Carbonic anhydrase 4, 7000 nM.

Turning to `Cc1cc(N2CC(C(=O)N/N=C/c3ccc([N+](=O)[O-])cc3)CC2=O)cc(C)c1S(N)(=O)=O` (stereo not given), the equilibrium dissociation constant (Kd) on Carbonic anhydrase 1 was 1000 nM; on Carbonic anhydrase 3, at least 200000 nM; on Carbonic anhydrase 7 it was 33000 nM; at Carbonic anhydrase 9, 2000 nM; at Carbonic anhydrase 6, 10000 nM; at Carbonic anhydrase 2, 1700 nM. The dissociation constant (Kd) in [1] was found to be 400 nM; at Carbonic anhydrase 13, 17000 nM; at Carbonic anhydrase 12 it was 22000 nM; at Carbonic anhydrase 4 it was 4700 nM.

In the case of `Cc1cc(N2CC(c3n[nH]c(=S)o3)CC2=O)cc(C)c1S(N)(=O)=O` (stereo not given), the dissociation constant (Kd) on Carbonic anhydrase 1 is 10000 nM; on Carbonic anhydrase 3 it was at least 200000 nM; at Carbonic anhydrase 7, 20000 nM; at Carbonic anhydrase 9, 3300 nM; on Carbonic anhydrase 6, 50000 nM; on Carbonic anhydrase 2 it was 7700 nM. For the same compound, the Kd in [1] is 2000 nM; at Carbonic anhydrase 13, at least 200000 nM; on Carbonic anhydrase 12 it was at least 200000 nM; on Carbonic anhydrase 4 it was 6900 nM.

Regarding `Cc1cc(N2CC(C(=O)N/N=C/c3ccc(Cl)cc3)CC2=O)c(Cl)c(C)c1S(N)(=O)=O` (stereo not given), the dissociation constant (Kd) is 670 nM on Carbonic anhydrase 1; at least 200000 nM on Carbonic anhydrase 3; 35 nM at Carbonic anhydrase 7; 91 nM at Carbonic anhydrase 9; 650 nM at Carbonic anhydrase 6; 100 nM at Carbonic anhydrase 2. The dissociation constant (Kd) stood at 3.8 nM in [1], 200 nM on Carbonic anhydrase 13, 2000 nM on Carbonic anhydrase 12 and 510 nM on Carbonic anhydrase 4.

As for `Cc1cc(N2CC(C(=O)NNC(=S)Nc3ccccc3)CC2=O)cc(C)c1S(N)(=O)=O` (stereo not given), the dissociation constant Kd was 910 nM at Carbonic anhydrase 1; at least 200000 nM at Carbonic anhydrase 3; 6500 nM on Carbonic anhydrase 7; 1400 nM at Carbonic anhydrase 9; at least 200000 nM at Carbonic anhydrase 6; 1100 nM at Carbonic anhydrase 2. Further, the dissociation constant Kd in test [1] came to 770 nM; at Carbonic anhydrase 13, 1000 nM; on Carbonic anhydrase 12 it was 5000 nM; on Carbonic anhydrase 4 it was 6900 nM.

Consider `Cc1cc(N2CC(C(=O)N/N=C/c3ccc(Cl)cc3)CC2=O)cc(C)c1S(N)(=O)=O` (stereo not given), for which the equilibrium dissociation constant (Kd) is 1700 nM at Carbonic anhydrase 1; at least 200000 nM on Carbonic anhydrase 3; at least 200000 nM on Carbonic anhydrase 7; 3300 nM on Carbonic anhydrase 9; 14000 nM on Carbonic anhydrase 6; 2000 nM at Carbonic anhydrase 2. Besides, the Kd in test [1] is 670 nM; at Carbonic anhydrase 13, at least 200000 nM; on Carbonic anhydrase 12, at least 200000 nM; at Carbonic anhydrase 4, 18000 nM.

`Cc1cc(N2CC(C(=O)NN3CC(C(=O)O)CC3=O)CC2=O)cc(C)c1S(N)(=O)=O` (stereo not given): the dissociation constant Kd at Carbonic anhydrase 1 is 13000 nM; on Carbonic anhydrase 3, at least 200000 nM; on Carbonic anhydrase 7, 33000 nM; at Carbonic anhydrase 9 it was 4000 nM; on Carbonic anhydrase 6, 83000 nM; on Carbonic anhydrase 2 it was 7100 nM. Also, the Kd in test [1] is 7700 nM; at Carbonic anhydrase 13, 6700 nM; at Carbonic anhydrase 12, 22000 nM; on Carbonic anhydrase 4 it was 9100 nM.
